For one experiment, the system named is human EDG8, SEQ ID NO. 2. Briefly: FLIPR assay of intracellular Ca2+ mobilization in transiently transfected CHO cells. Particulars: for increase in intracellular Ca^2+: lipids at 10, 100 and 1000 nM, CHO cells with EDG8 and Gα16 or Gαqi5 (Fig.3), LPA and DHS1P active at 100 and 1000 nM, SPC and LPC tested up to 1 µM. The class given is cell-based. How it is done:
(§1) CHO-K1 cells were grown in basal ISCOVE medium supplemented with 10% fetal bovine serum at 37°C in a humidified 5% CO2 incubator. For transfections, 2 x 10^5 cells were seeded into 35-mm dishes. About 24 hr later cells were transiently transfected at 50-80% confluency with the indicated receptor and G-protein constructs (1µg of plasmid DNA each) using the Lipofectamine transfection reagent and the supplied protocol (GIBCO). 18-24 hr after transfection cells were seeded into 96well plates at a density of 50.000 cells per well and cultured for 18-24 additional hr until used in the functional FLIPR assays. The cDNA for Gα16 was cloned from TF1 cells by RT-PCR and ligated into the pCDNA1.1 mammalian expression vector (Invitrogen). Murine wild type Gαq was cloned from cells by RT-PCR and inserted into the BamHl-Nsil-sites of pCDNA1.1. To create the C-terminally modified Gαqi5 subunit, in which the last five aa of wt Gαq were replaced with the correspoding Gαi sequence, a 175-bp Bg/II-NsiI fragment was replaced, in a two piece ligation, with a synthetic DNA fragment, containing the desired codon changes. The correctness of all PCR-derived sequences was verified by sequencing in both directions.
(§2) Twenty-four hours after transfection, cells were splitted into 96-well, black-wall microplates (Corning) at a density of 50,000 cells per well. 18-24 hr later, cells were loaded with 95µl of HBSS containing 20 mM Hepes, 2.5 mM probenecid, 4 µM fluorescent calcium indicator dye Fluo4 (Molecular Probes) and 1% fetal bovine serum for 1 h(37°C, 5% CO2). Cells were washed three times with HBSS containing 20 mM Hepes and 2.5 mM probenecid in a cell washer. After the final wash, the solution was aspirated to a residual volume of 100 µl per 96 well. Lipid ligands were dissolved in DMSO as 2 mM stock solutions (treated with ultrasound when necessary) and diluted at least 1:100 into HBSS containing 20 mM HEPES, 2.5 mM probenecid and 0.4 mg/ml fatty acid free bovine serum albumine. Lipids were aliquoted as 2X solutions into a 96 well plate prior to the assay. The fluorometric imaging plate reader (FLIPR, Molecular Devices) was programmed to transfer 100 µl from each well of the ligand microplate to each well of the cellplate and to record fluorescence during 3 min in 1 second intervals during the first minute and 3 second intervals during the last two minutes. Total fluorescence counts from the 18-s to 37-s time points are used to determine agonist activity. The instrument software normalizes the fluorescent reading to give equivalent initial readings at time zero.
A general note: Calcium assays in cells follow changes in intracellular calcium, usually with a dye or a luminescent sensor.

Experiment [1] has as its system CHO cells transfected with empty vector DNA. Briefly: FLIPR assay of intracellular Ca2+ mobilization in control CHO cells without receptor. Particulars: S1P 10, 100 and 1000 nM; empty vector DNA (Fig.2A). The class given is cell-based, chinese hamster. The procedure: CHO-K1 cells were grown in basal ISCOVE medium supplemented with 10% fetal bovine serum at 37°C in a humidified 5% CO2 incubator. For transfections, 2 x 10^5 cells were seeded into 35-mm dishes. About 24 hr later cells were transiently transfected at 50-80% confluency with the indicated receptor and G-protein constructs (1µg of plasmid DNA each) using the Lipofectamine transfection reagent and the supplied protocol (GIBCO). 18-24 hr after transfection cells were seeded into 96well plates at a density of 50.000 cells per well and cultured for 18-24 additional hr until used in the functional FLIPR assays. The cDNA for Gα16 was cloned from TF1 cells by RT-PCR and ligated into the pCDNA1.1 mammalian expression vector (Invitrogen). […]
Twenty-four hours after transfection, cells were splitted into 96-well, black-wall microplates (Corning) at a density of 50,000 cells per well. […] The fluorometric imaging plate reader (FLIPR, Molecular Devices) was programmed to transfer 100 µl from each well of the ligand microplate to each well of the cellplate and to record fluorescence during 3 min in 1 second intervals during the first minute and 3 second intervals during the last two minutes. Total fluorescence counts from the 18-s to 37-s time points are used to determine agonist activity. The instrument software normalizes the fluorescent reading to give equivalent initial readings at time zero.

A further experiment has as its system EDG3 receptor. Briefly: FLIPR assay of intracellular Ca2+ mobilization in transiently transfected CHO cells. It counts as cell-based, human. The following applies: S1P 10, 100 and 1000 nM; CHO cells with EDG3 (Fig.2C). How it is done:
as §1, §2

Another experiment relates to EDG5 receptor. The description is as above. It counts as cell-based, human. Particulars: S1P 10, 100 and 1000 nM; CHO cells with EDG5 (Fig.2D). The procedure:
as §1, §2

A further experiment has as its system EDG6 receptor. The experiment is described as above. The class given is cell-based, human. Particulars: S1P 10, 100 and 1000 nM; CHO cells with EDG6, no cotransfected G-protein α subunit (Fig.2E). How it is done:
as §1, §2

For another experiment, the system named is EDG1 receptor. The description is as above. It counts as cell-based, human. Particulars: S1P 10, 100 and 1000 nM; CHO cells with EDG1 (Fig.2B). The procedure: as §1, §2

In the case of `CCCCCCCCCCCCCCCC(O)C(N)COP(=O)(O)O` (stereo not drawn) [DHS1P], the “increase in intracellular Ca^2+” value with human EDG8, SEQ ID NO. 2 is “evoked [Ca^2+]i increases”.
Regarding `CCCCCCCC/C=C\CCCCCCCC(=O)OCC(O)COP(=O)(O)O` (stereo not drawn) [LPA, lysophosphatidic acid], in the experiment on human EDG8, SEQ ID NO. 2, the “increase in intracellular Ca^2+” value is “evoked [Ca^2+]i increases”.
As to `CCCCCCCCCCCCC/C=C/[C@@H](O)[C@@H](N)COP(=O)(O)O` [S1P, sphingosin 1-phosphate], the “release of [Ca^2+]i” value with human EDG8, SEQ ID NO. 2 (S1P 10, 100 and 1000 nM, CHO cells with EDG8, no cotransfected G-protein α subunit (Fig.2F)) is “did not release [Ca^2+]i”. Also, the “mobilization of Ca^2+” value in the experiment on human EDG8, SEQ ID NO. 2 (S1P 10, 100 and 1000 nM, CHO cells with EDG8 cotransfected with Gα16 or Gαqi5 (Fig.2F)) is on record as “gained the ability to mobilize Ca^2+”. The “increase in intracellular Ca^2+” value in the experiment with human EDG8, SEQ ID NO. 2 was “most potent activator of EDG8”. The “rises in intracellular Ca^2+” value in experiment [1] is on record as “None of the applied S1P concentrations was capable of eliciting significant rises in intracellular Ca^2+”. The “mobilization of [Ca^2+]i” value with EDG3 receptor, in the experiment on EDG5 receptor and in the experiment on EDG1 receptor was “mobilize [Ca^2+]i” in each case. The “Ca^2+ increase above basal levels” value in the experiment on EDG6 receptor is reported as “failed to detect a significant Ca^2+ increase above basal levels”.
For the molecule `CCCCCCCCCCCCCC=CC(O)C(N)COP(=O)([O-])OCC[N+](C)(C)C` (stereo not drawn) [SPC, sphingosylphosphorylcholine], the “increase in intracellular Ca^2+” value in the experiment on human EDG8, SEQ ID NO. 2 is given as “failed to generate any significant response”.
The same measure, in the same setting: under lysophosphatidylcholine [LPC] stands “failed to generate any significant response”.
